Reference: patent US20210255193A1, “LYSINE REACTIVE PROBES AND USES THEREOF” (The Scripps Research Institute, priority 2017, published 2021)

Columns and labels:
Experiment in all cases: competitive isoTOP-ABPP
Assay type in all cases: binding
[1] = molecular target: T1, FECH Ferrochelatase, mitochondrial (Homo sapiens, UniProt P22830)
T1 construct: isoTOP-ABPP experiments performed in cell lysates (in vitro); endogenous in cells; host or cells: soluble proteome of human cancer cell lines (MDA-MB-231; Ramos and Jurkat also prepared)
T1 sequence (P22830 55-423): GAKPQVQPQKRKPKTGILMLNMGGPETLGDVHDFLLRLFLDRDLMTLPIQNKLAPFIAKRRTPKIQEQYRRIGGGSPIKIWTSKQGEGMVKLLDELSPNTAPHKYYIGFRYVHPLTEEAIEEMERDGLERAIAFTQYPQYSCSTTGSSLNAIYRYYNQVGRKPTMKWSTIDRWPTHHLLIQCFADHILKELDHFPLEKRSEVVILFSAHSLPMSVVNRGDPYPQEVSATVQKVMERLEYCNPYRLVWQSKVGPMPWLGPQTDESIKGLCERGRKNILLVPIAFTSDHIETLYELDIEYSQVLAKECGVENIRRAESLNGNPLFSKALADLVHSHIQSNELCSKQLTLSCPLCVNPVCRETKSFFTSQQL
Protocol: (§1) In vitro covalent fragment treatment for isoTOP-ABPP. All compounds were made up as solutions in DMSO (100×) and were used at a final concentration of 50 μM for activated esters and 100 μM for guanidinylating agents. For each profiling sample, 0.5 ml of lysate was treated with 5 μl of the 100× compound stock solution or 5 μl of DMSO. Samples were treated with activated esters for
(§2) STP-alkyne labeling and click chemistry. For concentration-dependent reactivity measurements by isoTOP-ABPP, 0.5 ml proteome aliquots were treated at ambient temperature with 1 mM STP-alkyne 1 (5 μl of 100 mM stock in DMSO) and 0.1 mM STP alkyne 1 (5 μl of 10 mM stock in DMSO), respectively. For competitive isoTOP-ABPP, after in vitro fragment treatment (detailed above), the samples were labeled for 1 h at ambient temperature with 0.1 mM STP-alkyne 1 (5 μl of 10 mM stock in DMSO). Samples were conjugated by copper-mediated azide-alkyne cycloaddition (CuAAC) to either the light (1 mM STP-alkyne or fragment treated) or heavy (0.1 mM STP-alkyne or DMSO treated) TEV tags (10 μl of 5 mM stocks in DMSO, final concentration=100 μM) using tris(2-carboxyethyl)phosphine hydrochloride
(§3) R value calculation and processing. The ratios of light and heavy MS1 peaks for each unique peptide were quantified with a CIMAGE software using default parameters (3 MS1 acquisitions per peak and signal to noise threshold set to 2.5). For reactivity measurements by isoTOP-ABPP, the R value was calculated from the ratio of MS1 peak areas, comparing the 1 mM STP alkyne sample (light TEV tag) with the 0.1 mM STP alkyne sample (heavy TEV tag). For competitive isoTOP-ABPP, the R value was calculated from the ratio of MS1 peak areas, comparing the DMSO treated sample (heavy TEV tag) with the compound treated sample (light TEV tag). […] Ratios for unique peptide entries are calculated for each experiment; overlapping peptides with the same modified lysine (for example, different charge states, MudPIT chromatographic steps or tryptic termini) are grouped together and the median ratio is reported as the final ratio (R). The peptide ratios reported by CIMAGE were further filtered to ensure the removal or correction of low-quality ratios in each individual data set. The quality filters applied were the following: removal of half tryptic peptides; for ratios with high standard deviations from the median (90% of the median or above) the lowest ratio was taken instead of the median; removal of peptides with R=20 and only a single MS2 event triggered during the elution of the parent ion; manual annotation of all the peptides with ratios of 20, removing any peptides with low quality elution profiles that remained after the previous curation steps (only done for competitive isoTOP-ABPP).
(§4) Cross-data processing for fragment screening. For compound treated samples, biological replicates of the same condition were averaged, if the standard deviation was below 60% of the mean; otherwise, for lysines with at least one R value <4 for a particular compound, the lowest value of the ratio set was taken. For lysines, where all R values for a particular compound were ≥4, the average was reported. For peptides containing several possible modified lysines, the lysine with the highest number of quantification events was used for analysis and the remaining, redundant peptides were reported as alternative modification sites. Peptides included in the aggregate dataset (those used for further bioinformatics and statistical analyses) were required to have been quantified in 2 experiments for competitive isoTOP-ABPP. Lysines were categorized as liganded, if they had at least one ratio R≥4 (hit fragments). For liganded lysines with R=20 for all liganding events, lysines were required to have been quantified with R=20 in two separate experiments and were further required to have been quantified with R<20 in one additional experiment.

OLA1 Obg-like ATPase 1 = molecular target: T2, OLA1 Obg-like ATPase 1 (Homo sapiens, UniProt Q9NTK5)
T2 construct: endogenous in cells; host or cells: MDA-MB-231 (soluble fraction of lysate)
Protocol: as §1, §2, §3, §4

[2] = molecular target: T3, ABHD10 Abhydrolase domain-containing protein 10, mitochondrial (Homo sapiens, UniProt Q9NUJ1); design: key to isoTOP-ABPP reactivity ratio at lysine Q9NUJ1_K185: R = MS1 peak area ratio, DMSO (heavy) / compound-treated (light); capped at 20
T3 construct: endogenous in cells; host or cells: MDA-MB-231 lysate
T3 sequence (Q9NUJ1 53-306): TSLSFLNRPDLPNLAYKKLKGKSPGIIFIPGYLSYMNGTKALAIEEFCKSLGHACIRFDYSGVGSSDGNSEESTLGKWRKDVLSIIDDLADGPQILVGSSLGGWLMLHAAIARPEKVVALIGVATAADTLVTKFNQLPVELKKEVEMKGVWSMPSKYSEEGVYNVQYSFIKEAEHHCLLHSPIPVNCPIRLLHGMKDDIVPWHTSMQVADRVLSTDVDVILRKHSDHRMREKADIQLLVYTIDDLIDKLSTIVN
Protocol: as §1, §2, §3, §4

[3] = molecular target: T4, MAP1LC3B Microtubule-associated proteins 1A/1B light chain (Homo sapiens, UniProt Q9GZQ8); design: key to isoTOP-ABPP reactivity ratio at lysine Q9GZQ8_K51: R = MS1 peak area ratio, DMSO (heavy) / compound-treated (light)
T4 construct: isoTOP-ABPP experiments performed in cell lysates (in vitro); endogenous in cells; host or cells: soluble proteome of human cancer cell lines (MDA-MB-231; Ramos and Jurkat also prepared)
Protocol: as §1, §2, §3, §4

Compound: CC(C)(C)OC(=O)N=C(NC(=O)OC(C)(C)C)n1cccn1 [fragment 50, reference compound]
- isoTOP-ABPP ratio, lysine P22830_K304 ([1]; 100 uM_231_sol_in vitro): 2.3
- isoTOP-ABPP ratio, lysine Q9NTK5_K248 (OLA1 Obg-like ATPase 1; 100 uM_231_sol_in vitro): 2.1
- isoTOP-ABPP ratio, lysine Q9NUJ1_K185 ([2]; 100 uM_231_sol_in vitro): 1.3
- isoTOP-ABPP ratio, lysine Q9GZQ8_K51 ([3]; 100 uM_231_sol_in vitro): 4.6

Compound: N#Cc1ccc(C(=O)Oc2ccc([N+](=O)[O-])cc2[N+](=O)[O-])cc1 [fragment 44, 2,4-Dinitrophenyl 4-cyanobenzoate]
- isoTOP-ABPP ratio, lysine P22830_K304 ([1]; 50 uM_231_sol_in vitro): 1.1
- isoTOP-ABPP ratio, lysine Q9NTK5_K248 (OLA1 Obg-like ATPase 1; 50 uM_231_sol_in vitro): 1.1
- isoTOP-ABPP ratio, lysine Q9NUJ1_K185 ([2]; 50 uM_231_sol_in vitro): 1.2
- isoTOP-ABPP ratio, lysine Q9GZQ8_K51 ([3]; 50 uM_231_sol_in vitro): 0.9

Compound: O=C(CCc1ccc2c(c1)OCO2)Oc1ccc([N+](=O)[O-])cc1[N+](=O)[O-] [fragment 45, 2,4-Dinitrophenyl 3-(benzo[d][1,3]dioxol-5-yl)propanoate]
- isoTOP-ABPP ratio, lysine P22830_K304 ([1]; 50 uM_231_sol_in vitro): 1.4
- isoTOP-ABPP ratio, lysine Q9NTK5_K248 (OLA1 Obg-like ATPase 1; 50 uM_231_sol_in vitro): 1.0
- isoTOP-ABPP ratio, lysine Q9NUJ1_K185 ([2]; 50 uM_231_sol_in vitro): 1.2
- isoTOP-ABPP ratio, lysine Q9GZQ8_K51 ([3]; 50 uM_231_sol_in vitro): 1.0

Compound: COC(=O)NC(=NC(=O)OCC1c2ccccc2-c2ccccc21)n1cccn1 [fragment 49, N-Methoxycarbonyl-N′-9-fluorenylmethoxycarbonyl-pyrazole-1-carboxamidine]
- isoTOP-ABPP ratio, lysine P22830_K304 ([1]; 100 uM_231_sol_in vitro): 5.3
- isoTOP-ABPP ratio, lysine Q9NTK5_K248 (OLA1 Obg-like ATPase 1; 100 uM_231_sol_in vitro): 7.0
- isoTOP-ABPP ratio, lysine Q9NUJ1_K185 ([2]; 100 uM_231_sol_in vitro): 1.5
- isoTOP-ABPP ratio, lysine Q9GZQ8_K51 ([3]; 100 uM_231_sol_in vitro): 1.6

Compound: O=C(Oc1c(F)c(F)c(F)c(F)c1F)C(c1ccccc1)c1ccccc1 [fragment 20, Pentafluorophenyl 2,2-diphenylacetate]
- R value (DMSO/fragment) for probe 1 labeling ([1]; P22830_K304, 50 uM, 231 sol, in vitro): 1.7
- R value (DMSO/fragment) for probe 1 labeling (OLA1 Obg-like ATPase 1; Q9NTK5_K248, 50 uM, 231 sol, in vitro): 0.9
- R value (DMSO/fragment) for probe 1 labeling ([2]; Q9NUJ1_K185, 50 uM, 231 sol, in vitro): 1.1
- R value (DMSO/fragment) for probe 1 labeling ([3]; Q9GZQ8_K51, 50 uM, 231 sol, in vitro): 0.9

Compound: CCn1cc(C(=O)Oc2c(F)c(F)c(F)c(F)c2F)c(=O)c2ccc(C)nc21 [fragment 28, Pentafluorophenyl 1-ethyl-7-methyl-4-oxo-1,4-dihydro-1,8-naphthyridine-3-carboxylate]
- isoTOP-ABPP reactivity ratio at lysine P22830_K304 ([1]; 50 uM, 231 sol, in vitro): 1.5
- isoTOP-ABPP reactivity ratio at lysine Q9NTK5_K248 (OLA1 Obg-like ATPase 1; 50 uM, 231 sol, in vitro): 1.0
- isoTOP-ABPP reactivity ratio at lysine Q9NUJ1_K185 ([2]; 50 uM, 231 sol, in vitro): 1.2
- isoTOP-ABPP reactivity ratio at lysine Q9GZQ8_K51 ([3]; 50 uM, 231 sol, in vitro): 1.0

Compound: O=C(Oc1c(F)c(F)c(F)c(F)c1F)c1ccc2ccccc2n1 [fragment 25, Pentafluorophenyl quinoline-2-carboxylate]
- isoTOP-ABPP reactivity ratio at lysine P22830_K304 ([1]; 50 uM, 231 sol, in vitro): 1.0
- isoTOP-ABPP reactivity ratio at lysine Q9NTK5_K248 (OLA1 Obg-like ATPase 1; 50 uM, 231 sol, in vitro): 1.0
- isoTOP-ABPP reactivity ratio at lysine Q9NUJ1_K185 ([2]; 50 uM, 231 sol, in vitro): 1.5
- isoTOP-ABPP reactivity ratio at lysine Q9GZQ8_K51 ([3]; 50 uM, 231 sol, in vitro): 0.9

Compound: O=C(Oc1ccc([N+](=O)[O-])cc1[N+](=O)[O-])c1ccc(Oc2ccccc2)cc1 [fragment 39, 2,4-Dinitrophenyl 4-phenoxybenzoate]
- isoTOP-ABPP ratio (R) at liganded lysine P22830_K304 ([1]; 50 uM, in vitro, sol, 231): 1.3
- isoTOP-ABPP ratio (R) at liganded lysine Q9NTK5_K248 (OLA1 Obg-like ATPase 1; 50 uM, in vitro, sol, 231): 0.9
- isoTOP-ABPP ratio (R) at liganded lysine Q9NUJ1_K185 ([2]; 50 uM, in vitro, sol, 231): 1.0
- isoTOP-ABPP ratio (R) at liganded lysine Q9GZQ8_K51 ([3]; 50 uM, in vitro, sol, 231): 0.9
